Measured values from US9670213B2, “Pteridine ketone derivative and applications thereof as EGFR, BLK, and FLT3 inhibitor” (EAST CHINA UNIVERSITY OF SCIENCE AND TECHNOLOGY, priority 2012, dated 2017).

How the values were obtained:
wild-type EGFR = wild-type EGFR (Homo sapiens (Human), UniProt P00533); assay: In vitro EGFR kinase activity assay (Z'-Lyte); format: biochemical; conditions: EGFR WT; read-out: Inhibitory activity on EGFR kinase (IC50, nM) WT;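 note: Ten-point dose series from 5.1×10^−11 to 1.0×10^−6 mol/L, kinase reaction 1.5 h at room temperature, then 1 h development cleaving unphosphorylated peptide, phosphopeptide as 100% phosphorylation control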
Chain of wild-type EGFR (P00533 25-1210): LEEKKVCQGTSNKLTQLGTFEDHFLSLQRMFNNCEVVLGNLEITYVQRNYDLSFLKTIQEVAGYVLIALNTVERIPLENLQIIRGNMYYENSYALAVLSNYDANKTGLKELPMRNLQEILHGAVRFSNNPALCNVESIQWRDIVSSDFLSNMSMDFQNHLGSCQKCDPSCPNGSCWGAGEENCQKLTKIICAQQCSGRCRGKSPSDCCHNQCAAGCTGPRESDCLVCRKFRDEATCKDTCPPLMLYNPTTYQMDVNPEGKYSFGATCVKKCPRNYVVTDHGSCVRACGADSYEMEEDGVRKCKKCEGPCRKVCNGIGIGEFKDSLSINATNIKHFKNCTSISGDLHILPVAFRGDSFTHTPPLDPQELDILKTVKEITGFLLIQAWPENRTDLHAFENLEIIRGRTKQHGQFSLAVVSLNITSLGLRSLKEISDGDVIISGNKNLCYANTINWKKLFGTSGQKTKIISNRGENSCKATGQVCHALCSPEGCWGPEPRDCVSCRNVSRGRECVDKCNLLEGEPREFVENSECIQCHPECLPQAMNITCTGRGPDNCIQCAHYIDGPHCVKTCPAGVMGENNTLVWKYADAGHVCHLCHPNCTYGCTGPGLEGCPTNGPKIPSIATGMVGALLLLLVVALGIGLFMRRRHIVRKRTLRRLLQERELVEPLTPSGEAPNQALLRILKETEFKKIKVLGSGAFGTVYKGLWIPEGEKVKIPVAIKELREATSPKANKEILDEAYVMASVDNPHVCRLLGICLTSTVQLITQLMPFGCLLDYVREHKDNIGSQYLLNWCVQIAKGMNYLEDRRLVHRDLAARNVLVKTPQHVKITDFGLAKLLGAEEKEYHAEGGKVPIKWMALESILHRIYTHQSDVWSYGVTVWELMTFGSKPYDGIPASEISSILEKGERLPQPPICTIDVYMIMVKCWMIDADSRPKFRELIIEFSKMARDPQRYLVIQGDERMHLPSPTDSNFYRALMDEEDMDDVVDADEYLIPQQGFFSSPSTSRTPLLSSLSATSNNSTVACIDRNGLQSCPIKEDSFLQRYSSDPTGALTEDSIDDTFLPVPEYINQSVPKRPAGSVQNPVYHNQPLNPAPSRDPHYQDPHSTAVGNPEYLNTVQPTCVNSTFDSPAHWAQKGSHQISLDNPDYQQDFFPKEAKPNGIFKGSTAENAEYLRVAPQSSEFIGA
Experimental: (§8) Inhibitory effects in vitro of the compounds provided in the present invention on EGFR kinase activity was tested as follows:
(§9) 10 concentration gradients, from 5.1×10^−11 mol/L to 1.0×10^−6 mol/L, were set for all of the compounds to be tested.
(§10) 10 μL of kinase reaction system comprised 2.5 μL of compound solution, 5 μL of Kinase/peptide mixture, and 2.5 μL of ATP solution. 5 μL of phosphopeptide solution was used in place of kinase/peptide mixture as 100% phosphorylation control. […] After thoroughly mixing the solution within the plate, the plate was incubated at room temperature for 1.5 hours. 5 μL of DevelopmentSolution was added into each well, and then the plate was incubated at room temperature for another 1 hour, and non-phosphorylated peptide was cleaved within this period. Finally, the reaction was quenched by adding 5 μL of Stop Reagent. The Plate was measured with EnVision Multilabel Reader (Perkin Elmer). Experimental data were calculated by using GraphPad Prism version 4.0. Each experiment was repeated more than three times.

EGFR-L858R = EGFR-L858R (Homo sapiens (Human), UniProt P00533, L858R); assay: In vitro EGFR kinase activity assay (Z'-Lyte); format: biochemical; conditions: read-out: Inhibitory activity on EGFR kinase (IC50, nM) L858R;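 note: Cell-free kinase reaction with peptide substrate and ATP, 1.5 h at room temperature, then development step cleaving non-phosphorylated peptide, 10-point dilution series 0.051–1000 nM, phosphopeptide as 100% phosphorylation control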
Chain of EGFR-L858R (P00533 25-1210 L858R): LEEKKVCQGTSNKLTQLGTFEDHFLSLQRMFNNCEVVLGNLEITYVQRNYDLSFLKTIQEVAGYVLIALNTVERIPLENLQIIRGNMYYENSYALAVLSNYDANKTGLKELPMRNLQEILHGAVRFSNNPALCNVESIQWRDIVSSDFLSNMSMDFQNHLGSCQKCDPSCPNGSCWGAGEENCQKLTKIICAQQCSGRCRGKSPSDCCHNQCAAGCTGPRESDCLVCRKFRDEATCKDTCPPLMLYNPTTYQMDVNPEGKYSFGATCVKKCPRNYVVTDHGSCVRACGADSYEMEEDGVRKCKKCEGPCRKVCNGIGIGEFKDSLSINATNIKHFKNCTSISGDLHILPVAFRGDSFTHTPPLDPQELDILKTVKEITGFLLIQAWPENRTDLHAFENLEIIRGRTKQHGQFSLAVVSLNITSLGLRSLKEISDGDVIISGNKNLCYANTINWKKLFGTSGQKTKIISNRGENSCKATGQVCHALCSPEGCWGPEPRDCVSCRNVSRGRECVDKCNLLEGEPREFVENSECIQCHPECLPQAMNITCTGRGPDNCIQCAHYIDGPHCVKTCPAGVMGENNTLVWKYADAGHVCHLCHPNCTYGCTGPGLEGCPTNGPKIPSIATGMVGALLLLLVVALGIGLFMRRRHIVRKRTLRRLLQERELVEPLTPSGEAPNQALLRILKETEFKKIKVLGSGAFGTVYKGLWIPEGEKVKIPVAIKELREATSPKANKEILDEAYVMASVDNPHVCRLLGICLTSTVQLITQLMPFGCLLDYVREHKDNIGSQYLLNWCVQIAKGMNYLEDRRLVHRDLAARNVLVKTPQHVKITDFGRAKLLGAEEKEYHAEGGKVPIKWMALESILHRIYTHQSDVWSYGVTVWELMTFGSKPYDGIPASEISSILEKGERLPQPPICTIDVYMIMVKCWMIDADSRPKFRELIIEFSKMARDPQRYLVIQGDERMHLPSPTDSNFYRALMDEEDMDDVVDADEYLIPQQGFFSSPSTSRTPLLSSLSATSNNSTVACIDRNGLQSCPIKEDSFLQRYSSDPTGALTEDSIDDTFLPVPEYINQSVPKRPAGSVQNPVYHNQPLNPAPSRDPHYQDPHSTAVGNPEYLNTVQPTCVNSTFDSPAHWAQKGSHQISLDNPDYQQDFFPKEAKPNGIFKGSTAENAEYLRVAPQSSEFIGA

EGFR-L858R/T790M = EGFR-L858R/T790M (Homo sapiens (Human), UniProt P00533, L858R/T790M); assay: In vitro EGFR kinase activity assay (Z'-Lyte); format: biochemical; conditions: read-out: Inhibitory activity on EGFR kinase (IC50, nM) T790M/L858R;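 note: Cell-free kinase reaction with peptide substrate and ATP, 1.5 h at room temperature, development cleaving unphosphorylated peptide, 10-point dilution 0.051–1000 nM, phosphopeptide as 100% phosphorylation control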
Chain of EGFR-L858R/T790M (P00533 25-1210 T790M/L858R): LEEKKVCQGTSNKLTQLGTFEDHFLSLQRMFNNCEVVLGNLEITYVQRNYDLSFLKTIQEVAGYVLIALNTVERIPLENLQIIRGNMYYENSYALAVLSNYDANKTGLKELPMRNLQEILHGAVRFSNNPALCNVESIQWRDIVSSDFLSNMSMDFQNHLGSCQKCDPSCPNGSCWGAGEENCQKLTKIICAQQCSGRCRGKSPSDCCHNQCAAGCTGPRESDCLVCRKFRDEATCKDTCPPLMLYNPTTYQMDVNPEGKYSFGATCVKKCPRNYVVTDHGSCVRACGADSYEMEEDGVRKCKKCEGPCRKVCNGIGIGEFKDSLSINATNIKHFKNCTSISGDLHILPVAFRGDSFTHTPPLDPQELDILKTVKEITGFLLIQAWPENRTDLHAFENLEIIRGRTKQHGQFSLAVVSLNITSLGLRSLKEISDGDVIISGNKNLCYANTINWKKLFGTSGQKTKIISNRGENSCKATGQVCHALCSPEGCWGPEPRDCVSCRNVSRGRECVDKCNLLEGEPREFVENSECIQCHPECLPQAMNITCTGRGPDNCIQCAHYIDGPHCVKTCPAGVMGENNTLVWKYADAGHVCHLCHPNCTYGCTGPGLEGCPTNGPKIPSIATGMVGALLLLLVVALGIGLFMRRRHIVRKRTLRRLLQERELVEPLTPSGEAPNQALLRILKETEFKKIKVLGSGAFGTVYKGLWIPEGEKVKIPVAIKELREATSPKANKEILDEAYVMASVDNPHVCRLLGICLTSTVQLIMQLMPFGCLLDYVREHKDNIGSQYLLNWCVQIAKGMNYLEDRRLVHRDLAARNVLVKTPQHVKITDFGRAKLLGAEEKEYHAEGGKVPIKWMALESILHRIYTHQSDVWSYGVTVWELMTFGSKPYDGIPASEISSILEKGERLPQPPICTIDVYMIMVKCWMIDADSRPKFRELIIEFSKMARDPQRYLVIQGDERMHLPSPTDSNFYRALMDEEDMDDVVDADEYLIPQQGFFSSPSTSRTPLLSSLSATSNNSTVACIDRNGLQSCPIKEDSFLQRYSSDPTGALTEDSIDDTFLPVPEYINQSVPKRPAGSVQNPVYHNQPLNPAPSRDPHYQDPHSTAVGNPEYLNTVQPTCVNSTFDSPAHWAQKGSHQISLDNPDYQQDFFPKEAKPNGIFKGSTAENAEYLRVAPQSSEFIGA
Experimental: as §8, §9, §10

[1] = system: H1975 (non-small cell lung cancer cells, EGFR L858R/T790M); assay: Cell proliferation and growth inhibition analysis; format: cell-based; conditions: Homo sapiens, NCI-H1975, 72 hours, read-out: Inhibitory activity on cell proliferation (IC50, μM) H1975
Experimental: (§1) Cell proliferation was evaluated by MTS assay. Cells were exposed to the process conditions for 72 hours, and the number of cells for each cell line used in the experiment was adjusted according to the absorbance value (absorbance value at 490 nm was 1.3-2.2). 6 concentration gradients (0.1 nM-10 μM) were set for the compounds to be tested, with six parallel controls for each concentration.
(§2) H1975, HCC827, A549, BT474, MCF-7, SK-BR-3 cells were cultured in the corresponding medium. Upon recovery, the cells were passaged at least two times and then used in experiments. Cells in Log phase were trypsinized and resuspended in the medium. H1975 (1000 cells per well), BT474 (1500 cells per well), MCF-7 (1500 cells per well), HCC827 (2000 cells per well), SK-BR-3 (2000 cells per well), A549 (2000 cells per well) were seeded into 96-well plates, the volume was 100 μL, and 6 rows and 7 columns were set. The plate was placed in an incubator at 37° C. of 5% carbon dioxide overnight. Compounds were dissolved in DMSO to obtain the concentration of […], and then gradually diluted to obtain the concentration of compound as […], 0.1 μM, 0.01 μM, 0.001 μM, 0.0001 μM. 2 μL of compound solution was added into 998 μL of medium, and the resulting mixture was thoroughly mixed. 100 μL of mixture was added into 96-well plate. […] After the cells were cultured for 68 hours, 20 μL of MTT (5 mg/mL) was added. After 4 hours, the supernatant was discarded and 150 μL of DMSO was added. The resulting system was shaken for 10 minutes, and the plate was read with Synergy HT (Bio TeK) (OD490). The data was calculated by GraphPad Prism version 4.0, and IC50 was obtained by non-linear regression model using dose-response curve.

[2] = system: HCC827 (non-small cell lung cancer cells, EGFR del E746-A750); assay: Cell proliferation and growth inhibition analysis; format: cell-based; conditions: Homo sapiens, 72 hours, read-out: Inhibitory activity on cell proliferation (IC50, μM) HCC827
Experimental: as §1, §2

BLK = BLK (Homo sapiens (Human), UniProt P51451); assay: BLK kinase activity assay (Caliper); format: biochemical; conditions: read-out: Inhibitory activity on kinase (IC50, nM) BLK
Chain of BLK (P51451 whole entry): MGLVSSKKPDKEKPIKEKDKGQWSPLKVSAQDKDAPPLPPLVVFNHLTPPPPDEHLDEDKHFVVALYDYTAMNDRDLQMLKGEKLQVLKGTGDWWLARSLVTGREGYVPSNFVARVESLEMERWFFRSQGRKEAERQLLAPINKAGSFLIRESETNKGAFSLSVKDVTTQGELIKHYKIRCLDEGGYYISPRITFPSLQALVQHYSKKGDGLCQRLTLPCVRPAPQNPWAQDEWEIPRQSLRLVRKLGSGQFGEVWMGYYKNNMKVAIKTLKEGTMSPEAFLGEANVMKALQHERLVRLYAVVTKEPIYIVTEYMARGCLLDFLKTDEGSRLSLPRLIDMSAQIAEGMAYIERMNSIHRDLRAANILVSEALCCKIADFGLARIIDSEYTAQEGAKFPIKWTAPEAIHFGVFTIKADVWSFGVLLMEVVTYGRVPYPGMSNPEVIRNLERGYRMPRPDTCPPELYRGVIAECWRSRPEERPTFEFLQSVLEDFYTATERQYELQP
Experimental: (§3) Preparation of 1× kinase matrix buffer and stop buffer.
(§4) Preparation of compound solution. The compound was dissolved in 100% DMSO to a concentration, which was 50 times of the final highest inhibiting-concentration. 100 μL of the compound solution as said above was transferred into wells of 96-well plate. The above compound solution was sequentially diluted to the final desired concentration. In two blank wells of same 96-well plate, 100 μL of 100% DMSO was added as no-compound and no-kinase control, and this plate was used as the original plate.
(§5) Preparation of intermediate plate. 10 μL of compound solution was transferred from the original plate to another 96-well plate as the intermediate plate; 90 μL of 1× kinase buffer was added into each well of the intermediate plate, and the intermediate plate was shaken for 10 min.
(§6) Preparation of assay plate. 5 μL of solution from each well of intermediate plate was added into a 384-well plate, and repeated controls were set.
(§7) Kinase reaction. 2.5× kinase solution and 2.5× peptide solution were prepared. 2.5× kinase solution was transferred into assay plate. Assay plate comprised 5 μL of the compound solution in 10% DMSO. 10 μL of 2.5× kinase solution was added in each well of 384-well assay plate. […] 2.5× peptide solution was added into each well. After incubated at 28° C. for an appropriate time, 25 μL of stop buffer was added to quench the reaction. Experimental data were collected in Caliper. Curve was fitted.

FLT3 = FLT3 (Homo sapiens (Human), UniProt P36888); assay: FLT3 kinase activity assay (Caliper); format: biochemical; conditions: read-out: Inhibitory activity on kinase (IC50, nM) FLT3
Chain of FLT3 (P36888 27-993): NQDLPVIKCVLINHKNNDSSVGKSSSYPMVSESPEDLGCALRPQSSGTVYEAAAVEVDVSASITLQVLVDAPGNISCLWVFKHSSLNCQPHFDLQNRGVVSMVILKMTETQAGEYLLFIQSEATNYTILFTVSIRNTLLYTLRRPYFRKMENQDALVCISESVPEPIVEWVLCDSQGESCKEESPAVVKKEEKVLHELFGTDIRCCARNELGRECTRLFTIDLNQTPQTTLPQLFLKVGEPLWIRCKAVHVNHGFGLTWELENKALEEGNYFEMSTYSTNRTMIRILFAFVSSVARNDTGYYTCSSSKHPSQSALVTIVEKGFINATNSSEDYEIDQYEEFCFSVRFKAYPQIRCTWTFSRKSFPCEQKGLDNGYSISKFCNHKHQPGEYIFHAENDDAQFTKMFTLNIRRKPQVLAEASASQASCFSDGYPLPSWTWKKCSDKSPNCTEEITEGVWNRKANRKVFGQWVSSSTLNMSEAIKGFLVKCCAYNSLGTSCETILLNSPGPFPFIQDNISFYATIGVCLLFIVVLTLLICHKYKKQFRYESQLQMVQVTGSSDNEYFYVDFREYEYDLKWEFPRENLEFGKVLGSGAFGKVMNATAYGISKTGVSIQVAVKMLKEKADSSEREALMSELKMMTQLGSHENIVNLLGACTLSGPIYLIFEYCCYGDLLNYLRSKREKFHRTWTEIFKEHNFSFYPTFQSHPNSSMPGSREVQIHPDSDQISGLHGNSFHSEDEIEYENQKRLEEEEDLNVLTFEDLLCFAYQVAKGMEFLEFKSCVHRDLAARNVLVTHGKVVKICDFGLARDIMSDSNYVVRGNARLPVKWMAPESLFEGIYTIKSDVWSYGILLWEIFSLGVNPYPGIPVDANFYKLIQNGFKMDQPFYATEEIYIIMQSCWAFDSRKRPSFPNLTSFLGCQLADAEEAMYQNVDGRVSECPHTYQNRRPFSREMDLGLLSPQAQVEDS
Experimental: as §3, §4, §5, §6, §7

Row | SMILES | IC50 (wild-type EGFR) [nM] | IC50 (EGFR-L858R) [nM] | IC50 (EGFR-L858R/T790M) [nM] | IC50 [1] [µM] | IC50 [2] [µM] | IC50 (BLK) [nM] | IC50 (FLT3) [nM]
1 | C=CC(=O)Nc1ccc(-n2c(=O)cnc3cnc(Nc4ccccc4)nc32)cc1 [Compound 014, N-(4-(7-oxo-2-(phenylamino)-8(7H)-pteridin-yl)phenyl) acrylamide] | 16.1 | 26.4 | 113 | 77.8 | 68.1 | 7480 | 129
2 | CN(C)C/C=C/C(=O)Nc1cccc(-n2c(=O)cnc3cnc(Nc4ccccc4)nc32)c1 [Compound 013, 4-(dimethylamino)-N-(3-(7-oxo-2-(phenylamino)-8(7H)-pteridin-yl)phenyl)-2-buteneamide] | – | – | – | – | – | 171 | 3780
3 | C=CC(=O)Nc1cccc(-n2c(=O)cnc3cnc(Nc4ccc(N(CC)CC)cc4)nc32)c1 [Compound 023, N-(3-(2-(4-(diethylamino)phenylamino)-7-oxo-8(7H)-pteridin-yl)phenyl) acrylamide] | 23.1 | 16.3 | 5.57 | 0.477 | 0.031 | 83 | 1760
4 | C=CC(=O)Nc1cccc(-n2c(=O)c(C)nc3cnc(Nc4ccc(OC)cc4)nc32)c1 [Compound 026, N-(3-(2-(4-methoxyphenylamino)-6-methyl-7-oxo-8(7H)-pteridin-yl)phenyl) acrylamide] | – | – | – | – | – | 96 | 568
5 | C=CC(=O)Nc1cccc(Nc2ncc3ncc(=O)n(-c4ccc(OC)cc4)c3n2)c1 [Compound 027, N-(3-(8-(4-methoxyphenyl)-7-oxo-7,8-dihydro-pteridin-2-amino)phenyl) acrylamide] | 2000 | 1710 | 1200 | 3.05 | 0.408 | 5660 | 119
6 | C=CC(=O)Nc1cccc(-n2c(=O)cnc3cnc(Nc4ccc(C(N)=O)cc4)nc32)c1 [Compound 025, 4-(8-(3-acrylamidephenyl)-7-oxo-7,8-dihydropteridinyl-2-amino)benzamide] | 12.7 | 9.64 | 4.39 | 7.3 | 0.604 | 76 | 1790
7 | C=CC(=O)Nc1cccc(-n2c(=O)cnc3cnc(Nc4ccc(Cl)cc4)nc32)c1 [Compound 017, N-(3-(2-(4-chlorophenylamino)-7-oxo-8(7H)-pteridin-yl)phenyl) acrylamide] | 67 | 84.8 | 70.3 | 0.82 | 0.163 | 156 | 2820
8 | C=CC(=O)Nc1cccc(-n2c(=O)cnc3cnc(Nc4ccc(N5CCCCC5)cc4)nc32)c1 [Compound 021, N-(3-(7-oxo-2-(4-(1-piperidinyl)phenylamino)-8(7H)-pteridinyl)phenyl) acrylamide] | 19.7 | 11.7 | 5.49 | 0.238 | 0.02 | 83 | 878
9 | COc1ccc(-n2c(=O)cnc3cnc(Nc4cccc(N)c4)nc32)cc1 [Compound 028, 2-(3-aminophenylamino)-8-(4-methoxyphenyl)-7(8H)-pteridin-one] | 10600 | 18900 | 3530 | 82.8 | 15.9 | 7950 | 34
10 | C=CC(=O)Nc1cccc(Oc2nc(Nc3ccc(N4CCN(C)CC4)cc3OC)ncc2Cl)c1 [WZ4002, reference compound] | – | – | – | 0.039 | 0.014 | – | –
11 | C=CC(=O)Nc1ccc(-n2c(=O)cnc3cnc(Nc4ccc(N5CCN(C)CC5)cc4OC)nc32)cc1 [Compound 031] | 429 | 376 | 229 | 2.88 | 0.466 | 812 | 180
12 | C=CC(=O)Nc1cccc(-n2c(=O)cnc3cnc(Nc4ccc(NC(C)=O)cc4)nc32)c1 [Compound 024, N-(3-(2-(4-(acetylamino)-phenylamino)-7-oxo-8(7H)-pteridin-yl)phenyl) acrylamide] | 15.8 | 13.4 | 5.12 | 6.08 | 0.229 | 148 | 3550
13 | COc1ccc(-n2c(=O)cnc3cnc(Nc4ccc(N)cc4)nc32)cc1 [Compound 030, 2-(4-aminophenylamino)-8-(4-methoxyphenyl)-7(8H)-pteridin-one] | 3420 | 23800 | 6750 | 15.3 | 4.65 | > 10000 | 43
14 | C=CC(=O)Nc1cccc(-n2c(=O)cnc3cnc(Nc4ccccc4)nc32)c1 [Compound 015, N-(3-(7-oxo-2-(phenylamino)-8(7H)-pteridin-yl)phenyl)acrylamide] | – | – | – | 0.437 | – | – | 1860
15 | C=CC(=O)Nc1cccc(-n2c(=O)cnc3cnc(Nc4ccc(N5CCCC5)cc4)nc32)c1 [Compound 022, N-(3-(7-oxo-2-(4-(1-pyrrolidinyl)phenylamino)-8(7H)-pteridin-yl)phenyl) acrylamide] | 23.3 | 12.6 | 5.33 | 0.531 | 0.073 | 98 | 1080
16 | C=CC(=O)Nc1cccc(-n2c(=O)cnc3cnc(Nc4ccc(N5CCOCC5)cc4)nc32)c1 [Compound 018, N-(3-(2-(4-morpholinophenylamino)-7-oxo-8(7H)-pteridin-yl)phenyl) acrylamide] | 7.94 | 5.83 | 3.02 | 0.216 | 0.017 | 41 | 798
17 | C=CC(=O)Oc1ccc(-n2c(=O)cnc3cnc(Nc4ccc(OC)cc4)nc32)cc1 [Compound 011, 4-(2 (4-methoxyphenylamino)-7-oxo-8(7H)-pteridin-yl)phenyl acrylate] | 67 | 84.8 | 70.3 | 5.6 | 2.29 | 89 | 48
18 | C=CC(=O)Nc1ccc(-n2c(=O)cnc3cnc(Nc4ccc(Cl)cc4)nc32)cc1 [Compound 016, N-(4-(2-(4-chlorophenylamino)-7-oxo-8(7H)-pteridin-yl)phenyl) acrylamide] | 7580 | 116 | 1490 | 20.8 | 68.7 | > 10000 | 358
19 | CN(C)C/C=C/C(=O)Nc1ccc(-n2c(=O)cnc3cnc(Nc4ccccc4)nc32)cc1 [Compound 012, 4-(dimethylamino)-N-(4-(7-oxo-2-(phenylamino)-8(7H)-pteridin-yl)phenyl)-2-buteneamide] | 5980 | 5340 | 1920 | 18.9 | 4.42 | 6320 | 160
